The record followed here is patent US20250154173A1 (Merck Sharp & Dohme LLC, priority 2023, published 2025).

pEC50: −log10 of the molar value.

The target of this test is T1, GST-RIPK1 (recombinant GST-RIPK1 kinase domain (residues 1-327)) (Homo sapiens, UniProt Q13546).
T1 construct: recombinant GST-RIPK1 kinase domain (residues 1-327) enzyme produced from baculovirus-transfected Sf21 cells; host or cells: baculovirus-transfected Sf21 insect cells
T1 sequence (Q13546 1-327): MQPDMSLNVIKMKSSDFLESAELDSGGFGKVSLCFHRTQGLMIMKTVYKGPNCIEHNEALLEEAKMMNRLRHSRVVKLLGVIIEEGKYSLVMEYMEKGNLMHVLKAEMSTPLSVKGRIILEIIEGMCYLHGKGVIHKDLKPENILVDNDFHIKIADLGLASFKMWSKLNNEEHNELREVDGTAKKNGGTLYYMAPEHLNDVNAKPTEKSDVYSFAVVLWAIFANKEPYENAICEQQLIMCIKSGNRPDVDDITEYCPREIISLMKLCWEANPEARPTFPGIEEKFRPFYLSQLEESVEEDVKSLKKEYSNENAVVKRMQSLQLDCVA
Description: RIPK1-ADP-Glo Enzymatic Assay. It counts as biochemical. The note with it: ten-point titration, top compound concentration of 100000 nM; 25 nM GST-RIPK1, 300 μM ATP, 3 μM dephosphorylated-MBP; 30 min pre-incubation, 150 min reaction. An outline of the steps: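 ADP-Glo luminescence quantifies ADP formed over 150 minutes by 25 nM Sf21-produced GST-RIPK1 (1-327) using 300 μM ATP and 3 μM dephosphorylated MBP, following 30-minute compound preincubation at 1% DMSO. Ten-point 1:3 series from 100000 nM gave EC50 via four-parameter sigmoidal regression.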

In the case of `N#CC1(c2ccc(COC3CC4(C3)O[C@@H]3CC[C@@H](c5cnccn5)N3C4=O)cc2)CC1` (stereo partly drawn) [Example 20.8, 1-[4-({[(5′S,7a′R)-3′-oxo-5′-(pyrazin-2-yl)tetrahydro-3′H-spiro[cyclobutane-1,2′-pyrrolo[2,1-b][1,3]oxazol]-3-yl]oxy}methyl)phenyl]cyclopropane-1-carbonitrile], the pEC50 was 6.63.
Regarding `Cn1ccc([C@@H]2CC[C@H]3OC4(CC(Oc5cncc(Cl)c5)C4)C(=O)N32)n1` (stereo partly drawn) [Example 20.9, (5′S,7a′R)-3-[(5-chloropyridin-3-yl)oxy]-5′-(1-methyl-1H-pyrazol-3-yl)tetrahydro-3′H-spiro[cyclobutane-1,2′-pyrrolo[2,1-b][1,3]oxazol]-3′-one], the pEC50 was 7.08.
For `O=C1N2[C@H](O[C@]13C[C@@H](OCc1ccccc1)C3)[C@@H](O)C[C@H]2c1cnccn1` [Example 21.1, (1s,3S,5′S,7′S,7a′R)-3-(benzyloxy)-7′-hydroxy-5′-(pyrazin-2-yl)tetrahydro-3′H-spiro[cyclobutane-1,2′-pyrrolo[2,1-b]oxazol]-3′-one], the pEC50 was 6.59.
As to `O=C1N2[C@H](O[C@]13C[C@@H](OCc1ccccc1)C3)[C@H](O)C[C@H]2c1cnccn1` [Example 21.2, (1s,3S,5′S,7′R,7a′R)-3-(benzyloxy)-7′-hydroxy-5′-(pyrazin-2-yl)tetrahydro-3′H-spiro[cyclobutane-1,2′-pyrrolo[2,1-b]oxazol]-3′-one], the pEC50 was 6.97.
In the case of `O=C1N2[C@@H](CC[C@H]2c2cnccn2)O[C@]12C[C@@H](OCc1ccccc1Cl)C2` [Example 22.1, (1S,3S,5′S,7a′R)-3-((2-chlorobenzyl)oxy)-5′-(pyrazin-2-yl)tetrahydro-3′H-spiro[cyclobutane-1,2′-pyrrolo[2,1-b]oxazol]-3′-one] it was 7.74; in that of `Cc1cc(Cl)cnc1COC1CC2(C1)O[C@@H]1CC[C@@H](c3cnccn3)N1C2=O` (stereo partly drawn) [Example 22.3, (5′S,7a′R)-3-((5-chloro-3-methylpyridin-2-yl)methoxy)-5′-(pyrazin-2-yl)tetrahydro-3′H-spiro[cyclobutane-1,2′-pyrrolo[2,1-b]oxazol]-3′-one], 7.48; in that of `O=C1N2[C@@H](CC[C@H]2c2cnccn2)OC12CC(OCc1cccs1)C2` (stereo partly drawn) [Example 22.4, (5′S,7a′R)-5′-(pyrazin-2-yl)-3-(thiophen-2-ylmethoxy)tetrahydro-3′H-spiro[cyclobutane-1,2′-pyrrolo[2,1-b]oxazol]-3′-one], 6.84.
In the case of `O=C1N2[C@@H](CC[C@H]2c2cnccn2)OC12CC(OCc1cccc(Cl)c1)C2` (stereo partly drawn) [Example 22.6, (5′S,7a′R)-3-[(3-chlorophenyl)methoxy]-5′-(pyrazin-2-yl)tetrahydro-3′H-spiro[cyclobutane-1,2′-pyrrolo[2,1-b][1,3]oxazol]-3′-one], the pEC50 was 7.82.
As for `Cc1nnc(-c2ccc(COC3CC4(C3)O[C@@H]3CC[C@@H](c5cnccn5)N3C4=O)cc2)o1` (stereo partly drawn) [Example 22.9, (5′S,7a′R)-3-{[4-(5-methyl-1,3,4-oxadiazol-2-yl)phenyl]methoxy}-5′-(pyrazin-2-yl)tetrahydro-3′H-spiro[cyclobutane-1,2′-pyrrolo[2,1-b][1,3]oxazol]-3′-one], the figure is 7.43.

As usually defined, the pEC50 is the EC50 on a negative log10 scale, so that one unit is a factor of ten.
